Earlier results as cited in US9265724B2, “Oral dosage form of tetrahydrocannabinol and a method of avoiding and/or suppressing hepatic first pass metabolism via targeted chylomicron/lipoprotein delivery” (priority 2005, dated 2016).

Columns and labels:
[1] = low aqueous solubility and high permeability

SMILES: CCCCCc1cc(O)c2c(c1)OC(C)(C)[C@@H]1CCC(C)=C[C@@H]21 [Δ^9-THC, Δ^9-tetrahydrocannabinol]
- absorbed (after a single oral dose): 90-95%
- continuation of appetite stimulant effect (after administration): ≥ 24 h
- duration of action for psychoactive effects (after oral administration): 4 to 6 h
- peak effect (after oral administration): 2 to 4 h
- administered dose that reaches systemic circulation (oral): 10-20%
- maximal plasma levels (oral dosing of 20 mg in a sesame oil formulation): around 10 ng/ml
- biopharmaceutical classification system (BCS) class [1]: Class II
